In patent US9376429B2, “Sodium channel blockers, preparation method thereof and use thereof” (Daewoong Pharmaceutical Co., Ltd., priority 2012, dated 2016) one finds IC50 data, which are given here for 28 compounds.

For this experiment, the target named is T1, sodium ion channel (Nav1.7) (Homo sapiens, UniProt Q15858).
T1 construct: host or cells: HEK293
T1 sequence (Q15858 whole entry): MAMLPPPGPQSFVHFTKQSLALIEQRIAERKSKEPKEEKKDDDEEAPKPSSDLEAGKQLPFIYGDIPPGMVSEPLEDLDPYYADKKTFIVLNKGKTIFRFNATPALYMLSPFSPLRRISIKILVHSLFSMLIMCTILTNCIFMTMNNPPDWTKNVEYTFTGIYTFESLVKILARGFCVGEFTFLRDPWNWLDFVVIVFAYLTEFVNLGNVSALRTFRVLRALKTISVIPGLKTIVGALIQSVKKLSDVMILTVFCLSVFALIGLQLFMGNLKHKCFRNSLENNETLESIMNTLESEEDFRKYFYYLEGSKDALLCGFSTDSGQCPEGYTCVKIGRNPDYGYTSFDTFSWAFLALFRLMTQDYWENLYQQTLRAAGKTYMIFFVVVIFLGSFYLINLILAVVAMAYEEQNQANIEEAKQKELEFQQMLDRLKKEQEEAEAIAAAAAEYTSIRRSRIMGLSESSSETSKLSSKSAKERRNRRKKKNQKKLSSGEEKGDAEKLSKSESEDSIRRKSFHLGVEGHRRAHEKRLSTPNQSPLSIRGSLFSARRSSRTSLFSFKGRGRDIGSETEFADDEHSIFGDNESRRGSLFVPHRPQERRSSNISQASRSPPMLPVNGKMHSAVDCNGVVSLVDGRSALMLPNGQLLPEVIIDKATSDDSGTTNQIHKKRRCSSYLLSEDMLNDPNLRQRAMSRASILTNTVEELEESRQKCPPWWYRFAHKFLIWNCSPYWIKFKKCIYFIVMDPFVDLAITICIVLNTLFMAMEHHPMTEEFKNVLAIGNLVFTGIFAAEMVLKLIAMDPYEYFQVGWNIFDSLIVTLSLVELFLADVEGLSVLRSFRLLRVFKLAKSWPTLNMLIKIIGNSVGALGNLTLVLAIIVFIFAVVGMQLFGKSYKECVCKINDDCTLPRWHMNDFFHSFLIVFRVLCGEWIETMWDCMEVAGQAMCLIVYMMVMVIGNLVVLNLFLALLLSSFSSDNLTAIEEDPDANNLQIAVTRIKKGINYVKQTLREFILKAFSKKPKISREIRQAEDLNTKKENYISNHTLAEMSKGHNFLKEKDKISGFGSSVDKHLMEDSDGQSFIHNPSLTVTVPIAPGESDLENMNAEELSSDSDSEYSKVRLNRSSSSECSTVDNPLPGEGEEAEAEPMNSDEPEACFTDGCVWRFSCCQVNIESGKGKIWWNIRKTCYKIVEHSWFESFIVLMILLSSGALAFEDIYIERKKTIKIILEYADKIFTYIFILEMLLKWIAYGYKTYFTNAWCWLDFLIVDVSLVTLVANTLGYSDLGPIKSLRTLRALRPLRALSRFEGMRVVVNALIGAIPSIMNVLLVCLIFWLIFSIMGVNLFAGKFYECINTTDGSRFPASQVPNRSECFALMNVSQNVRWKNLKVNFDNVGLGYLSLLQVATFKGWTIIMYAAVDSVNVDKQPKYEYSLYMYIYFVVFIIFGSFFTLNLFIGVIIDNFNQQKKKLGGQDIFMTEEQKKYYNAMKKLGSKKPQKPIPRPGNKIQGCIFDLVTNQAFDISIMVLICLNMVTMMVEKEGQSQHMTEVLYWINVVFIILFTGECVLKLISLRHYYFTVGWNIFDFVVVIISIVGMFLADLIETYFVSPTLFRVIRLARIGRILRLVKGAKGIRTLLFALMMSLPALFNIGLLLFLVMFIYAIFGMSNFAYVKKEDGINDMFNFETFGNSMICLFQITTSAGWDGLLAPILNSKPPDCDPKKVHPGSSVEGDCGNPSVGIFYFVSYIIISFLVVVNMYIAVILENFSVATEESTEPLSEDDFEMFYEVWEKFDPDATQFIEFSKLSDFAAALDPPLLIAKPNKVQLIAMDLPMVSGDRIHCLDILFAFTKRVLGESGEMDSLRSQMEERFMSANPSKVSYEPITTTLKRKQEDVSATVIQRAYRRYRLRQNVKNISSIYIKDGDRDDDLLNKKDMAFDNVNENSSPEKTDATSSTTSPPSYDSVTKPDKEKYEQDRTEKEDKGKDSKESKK
Briefly: Blocking effect against sodium ion channel (Nav1.7), IonFlux16 auto patch clamp, hNav1.7 HEK293 cells. Type of experiment: cell-based. To be noted: peak current after 50 seconds treatment, eight concentrations. Here is the method: In order to measure the activities of the inventive compounds as antagonists, an experiment on a blocking effect against the sodium ion channel (Nav1.7) was carried out as follows.
The hNav1.7 HEK293 cell line used was a cell line having a human sodium ion channel 1.7 gene (type IX voltage-gated sodium channel alpha subunit) in human embryonic kidney (HEK) 293 cells and was purchased from Millipore. The medium used was prepared by adding 1% 100×NEAA and 10% heat inactivated FBS to DMEM F-12 and adding 1% P/S as an antibiotic thereto. G-418 as a […] was added during subculture, and the hNav1.7 HEK293 cells were cultured to a confluence of about 80% in a T75 flask in a 5% CO2 incubator at 37° C. for 2 or 3 days and detached from the flask by treatment with 0.25% trypsin solution. Then, the cells were collected by centrifugation and used in the experiment.
The compounds prepared in the Examples of the present invention were dissolved in dimethyl sulfoxide (DMSO) and used in the experiment. 90 mM and 10 mM DMSO stock solutions were prepared from each of the compounds and diluted in an extracellular solution (4 mM KCl, 138 mM NaCl, 1 mM MgCl2, 1.8 mM CaCl2, 5.6 mM glucose, 10 mM HEPES, pH 7.45) at various concentrations so that the final concentration of each compound in DMSO was 0.3% or less.
To measure the sodium ion channel blocking effect, an IonFlux16 Auto patch clamp system (Fluxion, Inc.) and a plate for exclusive use were used. The cells were distributed in an extracellular solution (4 mM KCl, 138 mM NaCl, 1 mM MgCl2, 1.8 mM CaCl2, 5.6 mM glucose, 10 mM HEPES, pH 7.45), and then dispensed in the specified region of the plate, and each of the prepared compound samples was diluted at various concentrations, and then dispensed in the specified region of the plate.
Specifically, eight concentrations per compound were set, and percent inhibition was determined by calculating the percentage of inhibition of the peak current, generated after treating the cells with each concentration of the compound for 50 seconds, relative to the peak current generated before treatment with the compound, and the IC50 value was calculated using the Sigma plot program. In Table 2 below, the percent inhibition of Nav1.7 is rated as follows: […]
`N#Cc1cc(S(=O)(=O)Nc2nccs2)ccc1Oc1cnc(-c2ccc(F)nc2F)cc1-c1ccncc1` [Example 53, 3-cyano-4-((2,6-difluoro-[3,2′:4′,4″-terpyridin]-5′-yl)oxy)-N-(thiazol-2-yl)benzenesulfonamide] registered an IC50 of over 100 nM.

As to `O=S(=O)(Nc1cscn1)c1cc(Cl)c(Oc2cnc(-c3ccc(F)c(F)c3)cc2-c2ccnc(F)c2)cc1F` [Example 80, 5-chloro-4-((6-(3,4-difluorophenyl)-2′-fluoro-[4,4′-bipyridin]-3-yl)oxy)-2-fluoro-N-(thiazol-4-yl)benzenesulfonamide], the IC50 is over 100 nM.

For `Cn1nccc1-c1cc(-c2cccc(F)c2)ncc1Oc1cc(F)c(S(=O)(=O)Nc2cscn2)cc1Cl` [Example 71, 5-chloro-2-fluoro-4-((6-(3-fluorophenyl)-4-(1-methyl-1H-pyrazol-5-yl)pyridin-3-yl)oxy)-N-(thiazol-4-yl)benzenesulfonamide], the IC50 was over 100 nM.

For `O=S(=O)(Nc1nccs1)c1ccc(C(O)c2ccc(Cl)cc2-c2ccoc2)c(F)c1` (stereo not shown) [Example 140, 4-((4-chloro-2-(furan-3-yl)phenyl)(hydroxy)methyl)-3-fluoro-N-(thiazol-2-yl)benzenesulfonamide], the IC50 was over 100 nM.

Turning to `N#Cc1cc(S(=O)(=O)Nc2nccs2)ccc1Oc1cnc(-c2ccccc2F)cc1-c1ccoc1` [Example 6, 3-cyano-4-(6-(2-fluorophenyl)-4-(furan-3-yl)pyridin-3-yloxy)-N-(thiazol-2-yl)benzenesulfonamide], the IC50 was over 100 nM.

As to `O=S(=O)(Nc1cscn1)c1cc(Cl)c(Oc2cnc(-c3cccc(F)c3)cc2-c2cncc(N3CCCC3)c2)cc1F` [Example 99, 5-chloro-2-fluoro-4-((6′-(3-fluorophenyl)-5-(pyrrolidin-1-yl)-[3,4′-bipyridin]-3′-yl)oxy)-N-(thiazol-4-yl)benzenesulfonamide], the IC50 was over 100 nM.

As for `Cc1cc(-c2cc(-c3ccccc3)ncc2Oc2ccc(S(=O)(=O)Nc3nccs3)cc2C#N)cnc1F` [Example 32, 3-cyano-4-((6-fluoro-5-methyl-6′-phenyl-[3,4′-bipyridin]-3′-yl)oxy)-N-(thiazol-2-yl)benzenesulfonamide], the IC50 was over 100 nM.

The compound `O=S(=O)(Nc1cscn1)c1cc(F)c(Oc2cnc(-c3ccc(C(F)(F)F)c(F)c3)cc2-c2cccnc2)cc1F` [Example 89, 2,5-difluoro-4-((6′-(3-fluoro-4-(trifluoromethyl)phenyl)-[3,4′-bipyridin]-3′-yl)oxy)-N-(thiazol-4-yl)benzenesulfonamide] returned an IC50 of over 100 nM.

Compound `O=S(=O)(Nc1cscn1)c1cc(Cl)c(Oc2cnc(-c3ccc(F)nc3F)cc2-c2ccoc2)cc1F` [Example 58, 5-chloro-4-((2′,6′-difluoro-4-(furan-3-yl)-[2,3′-bipyridin]-5-yl)oxy)-2-fluoro-N-(thiazol-4-yl)benzenesulfonamide] gave an IC50 of over 100 nM.

`O=S(=O)(Nc1nccs1)c1ccc(C(O)c2cccnc2-c2ccccc2)c(F)c1` (stereo not shown) [Example 157, 3-fluoro-4-(hydroxy(2-phenylpyridin-3-yl)methyl)-N-(thiazol-2-yl)benzenesulfonamide] came in with an IC50 of over 100 nM.

As to `O=S(=O)(Nc1cscn1)c1cc(Cl)c(Oc2cnc(-c3cccc(F)c3)cc2-c2ccoc2)cc1F` [Example 59, 5-chloro-2-fluoro-4-((6-(3-fluorophenyl)-4-(furan-3-yl)pyridin-3-yl)oxy)-N-(thiazol-4-yl)benzenesulfonamide], the IC50 is over 100 nM.

On to `N#Cc1cc(S(=O)(=O)Nc2nccs2)ccc1Oc1cnc(-c2cccnc2)cc1-c1ccoc1` [Example 13, 3-cyano-4-(4-(furan-3-yl)-2,3′-bipyridin-5-yloxy)-N-(thiazol-2-yl)benzenesulfonamide], for which the IC50 is over 100 nM.

For `Cn1nccc1-c1nc(-c2cccc(F)c2)ccc1Oc1ccc(S(=O)(=O)Nc2nccs2)cc1C#N` [Example 117, 3-cyano-4-((6-(3-fluorophenyl)-2-(1-methyl-1H-pyrazol-5-yl)pyridin-3-yl)oxy)-N-(thiazol-2-yl)benzenesulfonamide], the IC50 was in the range of 51 to 100 nM.

`Cn1nccc1-c1cc(-c2ccccc2F)ncc1Oc1ccc(S(=O)(=O)Nc2nccs2)cc1C#N` [Example 24, 3-cyano-4-((6-(2-fluorophenyl)-4-(1-methyl-1H-pyrazol-5-yl)pyridin-3-yl)oxy)-N-(thiazol-2-yl)benzenesulfonamide] displayed an IC50 of over 100 nM.

As for `N#Cc1cc(S(=O)(=O)Nc2ncns2)ccc1Oc1cnc(-c2ccccc2)cc1-c1ccoc1` [Example 3, 3-cyano-4-(4-(furan-3-yl)-6-phenylpyridin-3-yloxy)-N-(1,2,4-thiadiazol-5-yl)benzenesulfonamide], the IC50 is under 50 nM.

For `N#Cc1cc(S(=O)(=O)Nc2nccs2)ccc1Oc1cnc(-c2ccc(F)nc2)cc1-c1cccnc1` [Example 49, 3-cyano-4-((6-fluoro-[3,2′:4′,3″-terpyridin]-5′-yl)oxy)-N-(thiazol-2-yl)benzenesulfonamide], the IC50 was over 100 nM.

Take `O=S(=O)(Nc1nccs1)c1ccc(C(O)c2ccc(Cl)cc2-c2cn[nH]c2)c(F)c1` (stereo not shown) [Example 139, 4-((4-chloro-2-(1H-pyrazol-4-yl)phenyl)(hydroxy)methyl)-3-fluoro-N-(thiazol-2-yl)benzenesulfonamide]: the IC50 is over 100 nM.

For the compound `O=S(=O)(Nc1cscn1)c1cc(Cl)c(Oc2cnc(-c3ccc(F)c(F)c3)cc2-c2cccnc2)cc1F` [Example 82, 5-chloro-4-((6′-(3,4-difluorophenyl)-[3,4′-bipyridin]-3′-yl)oxy)-2-fluoro-N-(thiazol-4-yl)benzenesulfonamide], the IC50 is over 100 nM.

On to `Cn1cc(-c2nc(-c3cccc(F)c3)ccc2Oc2ccc(S(=O)(=O)Nc3nccs3)cc2C#N)cn1` [Example 122, 3-cyano-4-((6-(3-fluorophenyl)-2-(1-methyl-1H-pyrazol-4-yl)pyridin-3-yl)oxy)-N-(thiazol-2-yl)benzenesulfonamide], for which the IC50 lay in the range of 51 to 100 nM.

On to `N#Cc1cc(S(=O)(=O)Nc2nccs2)ccc1Oc1cnc(-c2cccc(C(F)(F)F)c2)cc1-c1ccoc1` [Example 8, 3-cyano-4-(4-(furan-3-yl)-6-(3-(trifluoromethyl)phenyl)pyridin-3-yloxy)-N-(thiazol-2-yl)benzenesulfonamide], for which the IC50 was over 100 nM.

`O=S(=O)(Nc1cscn1)c1cc(Cl)c(Oc2cnc(-c3cccc(F)c3)cc2-c2cccnc2)cc1F` [Example 74, 5-chloro-2-fluoro-4-((6′-(3-fluorophenyl)-[3,4′-bipyridin]-3′-yl)oxy)-N-(thiazol-4-yl)benzenesulfonamide] gave an IC50 of over 100 nM.

As to `O=S(=O)(Nc1nccs1)c1ccc(C(O)c2ccc(-c3ccoc3)cc2-c2ccoc2)c(F)c1` (stereo not shown) [Example 141, 4-((2,4-di(furan-3-yl)phenyl)(hydroxy)methyl)-3-fluoro-N-(thiazol-2-yl)benzenesulfonamide], the IC50 was over 100 nM.

Take `Cn1cc(-c2nc(-c3ccnc(F)c3)ccc2Oc2ccc(S(=O)(=O)Nc3nccs3)cc2C#N)cn1` [Example 125, 3-cyano-4-((2′-fluoro-6-(1-methyl-1H-pyrazol-4-yl)-[2,4′-bipyridin]-5-yl)oxy)-N-(thiazol-2-yl)benzenesulfonamide]: the IC50 was over 100 nM.

The compound `Cn1cc(-c2cc(-c3ccoc3)c(Oc3ccc(S(=O)(=O)Nc4nccs4)cc3C#N)cn2)cn1` [Example 46, 3-cyano-4-((4-(furan-3-yl)-6-(1-methyl-1H-pyrazol-4-yl)pyridin-3-yl)oxy)-N-(thiazol-2-yl)benzenesulfonamide] gave an IC50 of over 100 nM.

In the case of `N#Cc1cc(S(=O)(=O)Nc2nccs2)ccc1Oc1cnc(-c2ccc(F)nc2)cc1-c1ccoc1` [Example 11, 3-cyano-4-(6′-fluoro-4-(furan-3-yl)-2,3′-bipyridin-5-yloxy)-N-(thiazol-2-yl)benzenesulfonamide], the IC50 lay in the range of 51 to 100 nM.

`Cn1nccc1-c1nc(-c2ccnc(F)c2)ccc1Oc1ccc(S(=O)(=O)Nc2nccs2)cc1C#N` [Example 107, 3-cyano-4-((2′-fluoro-6-(1-methyl-1H-pyrazol-5-yl)-[2,4′-bipyridin]-5-yl)oxy)-N-(thiazol-2-yl)benzenesulfonamide] came in with an IC50 of over 100 nM.

With `N#Cc1cc(S(=O)(=O)Nc2nccs2)ccc1Oc1ccc(-c2cccnc2)nc1-c1ccoc1` [Example 105, 3-cyano-4-((6-(furan-3-yl)-[2,3′-bipyridin]-5-yl)oxy)-N-(thiazol-2-yl)benzenesulfonamide], the IC50 was over 100 nM.

`O=S(=O)(Nc1cscn1)c1cc(Cl)c(Oc2cnc(-c3ccnc(F)c3)cc2-c2cncnc2)cc1F` [Example 77, 5-chloro-2-fluoro-4-((2′-fluoro-4-(pyrimidin-5-yl)-[2,4′-bipyridin]-5-yl)oxy)-N-(thiazol-4-yl)benzenesulfonamide]: the IC50 was over 100 nM.

What is called IC50 is the midpoint of a concentration-inhibition curve. A high value points to weaker potency.
